Drawing on US20070219239A1, “Nitrogen-containing heterocycle derivatives, pharmaceutical compositions, and methods of use thereof as antiviral agents” (priority 2006, published 2007), this text covers EC50 for five compounds.

pEC50: −log10 of the molar value.

The subject of this experiment is vaccinia virus. Nature of the experiment: microbe, parasite or virus in culture. It is filed as cell-based. The conditions noted are these: Orthopoxvirus vaccinia, BSC-40, in Chlorocebus sabaeus, read-out: EC50 (inhibition of viral replication).
Turning to `C[C@@H](NC(=O)c1cccc(-c2c[nH]c(-c3cc4ccccc4cn3)n2)c1)c1ccc(F)cc1` [Example 6, N-[(1R)-1-(4-fluorophenyl)ethyl]-3-(2-isoquinoline-3-yl-1H-imidazol-4-yl)benzamide], the pEC50 is at least 6.30.
With `C[C@@H](NC(=O)c1cc(NC(=O)C(C)(C)F)cc(-c2c[nH]c(-c3cc4ccccc4cn3)n2)c1)c1ccc(F)cc1` [Example 17, N-[(1R)-1-(4-fluorophenyl)ethyl]-3-(2-isoquinoline-3-yl-1H-imidazol-4-yl)-5-(2-fluoroisobutyrylamino)benzamide], the pEC50 is at least 6.30.
Regarding `CC(C)C(=O)Nc1cc(C(=O)N[C@H](C)c2ccc(F)cc2)cc(-c2c[nH]c(-c3cc4ccccc4cn3)n2)c1` [Example 1], the pEC50 was at least 6.30.
With `C[C@@H](NC(=O)c1cc(NC(=O)C(C)(C)C)cc(-c2c[nH]c(-c3cc4ccccc4cn3)n2)c1)c1ccc(F)cc1` [Example 15] the figure was at least 6.30; with `C[C@@H](NC(=O)c1cc(Cl)cc(-c2c[nH]c(-c3cc4ccccc4cn3)n2)c1)c1ccc(F)cc1` [Example 5, N-[(1R)-1-(4-fluorophenyl)ethyl]-3-(2-isoquinoline-3-yl-1H-imidazol-4-yl)-5-chlorobenzamide], at least 6.30.

As usually defined, the pEC50 is the EC50 on a negative log10 scale, so that one unit is a factor of ten.
